No end group written: not given here.
Legend:
articular cartilage = assay: Visualization of the HA-bound layer with biotinylated HA on cartilage covalently modified with HABPep; format: binding, bovine; conditions: after washing, compared to unmodified cartilage incubated with HA-biotin alone
Description: C-HABPep was conjugated to articular cartilage through a heterobifunctional poly(ethylene glycol) (PEG) spacer. Maleimide-PEG-N-hydroxysuccinimide (MAL-PEG-NHS, 3.5 kDa, Jenkem Technologies), which has functionalities that are thiol- and amine-reactive, was dissolved to 5 mM in 50 mM sodium bicarbonate, pH 7.5 and added to the articular surface. The NHS groups were allowed to react with endogenous amines on the cartilage surface for 30 minutes. PEGylation was confirmed by attenuated total reflectance Fourier transform IR spectroscopy (ATR-FTIR; Bruker Vector 22 with a Pike Miracle ATR attachment). Following thorough washes in buffer to remove unreacted crosslinker, a 1.5 mM solution of C-HABPep was added to the surface to react with maleimide groups for an additional 30 minutes. Surfaces were carefully washed to remove unreacted peptide, yielding a cartilage surface with covalently attached HA-binding functionality. Visualization of the HA-bound layer. Cartilage was conjugated with C-HABPep and incubated with biotinylated HA synthesized as previously described. Briefly, HA (975 kDa) was dissolved in 50 mM boric acid, pH 5.2 at 2 mg/ml. This was combined with biotin hydrazide (Sigma) in a 20:1 weight ratio. […] The reaction was allowed to proceed at room temperature for 16 hours, after which it was dialyzed to remove unreacted biotin hydrazide and EDC. […]

collagen II = collagen II (Homo sapiens, UniProt P02458); assay: Binding of collagen binding peptides conjugated to PEG-fluorescein on a thin coating of collagen II on TCP (fluorescence); conditions: for Normalized fluorescence intensity on collagen II coating: after washing, FIG. 2F, 2I; for Fluorescence intensity, binding on collagen II coating: compared to control and scrambled peptide, FIG. 2E, 2H
Chain of collagen II (P02458 182-1241 limits assumed): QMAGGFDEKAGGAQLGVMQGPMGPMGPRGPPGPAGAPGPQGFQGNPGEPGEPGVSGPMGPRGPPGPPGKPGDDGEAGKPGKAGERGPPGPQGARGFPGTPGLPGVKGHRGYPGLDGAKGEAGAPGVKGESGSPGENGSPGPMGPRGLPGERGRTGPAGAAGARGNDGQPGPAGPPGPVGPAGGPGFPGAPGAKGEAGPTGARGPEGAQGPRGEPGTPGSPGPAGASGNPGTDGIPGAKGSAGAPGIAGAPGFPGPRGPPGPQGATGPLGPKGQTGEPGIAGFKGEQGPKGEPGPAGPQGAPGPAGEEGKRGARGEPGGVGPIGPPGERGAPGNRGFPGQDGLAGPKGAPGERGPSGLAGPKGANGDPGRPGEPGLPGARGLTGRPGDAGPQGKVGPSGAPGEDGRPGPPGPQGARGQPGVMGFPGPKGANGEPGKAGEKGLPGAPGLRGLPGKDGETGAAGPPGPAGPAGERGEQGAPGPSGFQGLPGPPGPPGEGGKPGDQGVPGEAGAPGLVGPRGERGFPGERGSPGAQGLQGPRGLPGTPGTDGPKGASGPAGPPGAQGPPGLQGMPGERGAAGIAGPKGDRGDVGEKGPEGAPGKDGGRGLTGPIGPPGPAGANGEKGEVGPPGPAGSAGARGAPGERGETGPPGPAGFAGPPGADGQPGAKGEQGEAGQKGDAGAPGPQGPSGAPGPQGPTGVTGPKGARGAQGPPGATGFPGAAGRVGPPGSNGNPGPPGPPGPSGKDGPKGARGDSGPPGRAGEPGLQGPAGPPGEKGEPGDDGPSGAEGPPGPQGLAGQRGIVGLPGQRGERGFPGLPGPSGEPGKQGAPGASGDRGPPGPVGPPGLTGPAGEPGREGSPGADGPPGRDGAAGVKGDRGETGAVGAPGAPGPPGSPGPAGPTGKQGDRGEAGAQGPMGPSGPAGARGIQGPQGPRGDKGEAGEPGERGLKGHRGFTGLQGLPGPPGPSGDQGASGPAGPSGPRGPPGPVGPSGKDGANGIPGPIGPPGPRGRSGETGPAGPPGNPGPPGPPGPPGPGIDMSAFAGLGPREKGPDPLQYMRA
Source text: (§1) FIGS. 2A-2K depict the clinically-relevant, non-covalent strategy, for one-step application of HA binding polymer system on tissue surface of the present invention. 2A, The first step in this strategy for coating a tissue surface is the reaction of a maleimide-PEG-NHS crosslinker with primary amines of the HA-binding peptide. Subsequently, peptides that non-covalently bind to ECM components, such as collagen I and collagen II, also having a thiol end group, is reacted to the maleimide. Finally, this polymer-peptide system of the present invention is mixed with an HA solution that binds to the peptide-polymer system, which on a single application makes a biomaterial-HA coating on the tissue surface. The binding of the collagen binding peptides were analyzed on thin coatings of collagen I and II on polystyrene tissue culture plates. A thin coating of collagen I on TCP with: 2B, i) No peptide, only PEG-fluorescein as a control, ii) scrambled collagen I binding peptide conjugated to PEG-fluorescein, iii) collagen I binding peptide conjugated to PEG-fluorescein, iv) scrambled collagen II binding peptide conjugated to PEG-fluorescein, v) collagen II binding peptide conjugated to PEG-fluorescein. […] A thin coating of collagen II on TCP with: 2G, i) No peptide, only PEG-fluorescein as a control, ii) scrambled collagen I binding peptide conjugated to PEG-fluorescein, iii) collagen I binding peptide conjugated to PEG-fluorescein, iv) scrambled collagen II binding peptide conjugated to PEG-fluorescein, v) collagen II binding peptide conjugated to PEG-fluorescein.
(§2) Second, a clinically relevant one-step injection/coating technology of the present invention was developed based on non-covalent binding of the HABpeptide-polymer system. Tissue surfaces, including, for example, articular cartilage, conjunctiva and sclera of an eye, are collagen I and II enriched, and can act as stable anchoring sites for the ECM binding peptides (ECMBPep). The HA-binding peptide that is linked to the ECMBPep through the PEG spacer can recapture HA that is lost through a physical or biological mechanism and can dynamically bind and concentrate HA where it is needed. Specifically, amine functionality of Col I and II ECMBPep were reacted with NHS-PEG-MAL followed by conjugation of C-HABPep to the Maleimide end groups. The resultant biomaterial composition of the present invention is mixed with HA and applied to tissue surfaces in a single step (FIG. 2A).

collagen I = collagen I (Homo sapiens, UniProt P02452+P08123); assay: Binding of collagen binding peptides conjugated to PEG-fluorescein on a thin coating of collagen I on TCP (fluorescence); conditions: for Normalized fluorescence intensity on collagen I coating: after washing, FIG. 2D, 2K; for Fluorescence intensity, binding on collagen I coating: compared to control and scrambled peptide, FIG. 2C, 2J
Chain of collagen I (P02452 162-1218 limits assumed): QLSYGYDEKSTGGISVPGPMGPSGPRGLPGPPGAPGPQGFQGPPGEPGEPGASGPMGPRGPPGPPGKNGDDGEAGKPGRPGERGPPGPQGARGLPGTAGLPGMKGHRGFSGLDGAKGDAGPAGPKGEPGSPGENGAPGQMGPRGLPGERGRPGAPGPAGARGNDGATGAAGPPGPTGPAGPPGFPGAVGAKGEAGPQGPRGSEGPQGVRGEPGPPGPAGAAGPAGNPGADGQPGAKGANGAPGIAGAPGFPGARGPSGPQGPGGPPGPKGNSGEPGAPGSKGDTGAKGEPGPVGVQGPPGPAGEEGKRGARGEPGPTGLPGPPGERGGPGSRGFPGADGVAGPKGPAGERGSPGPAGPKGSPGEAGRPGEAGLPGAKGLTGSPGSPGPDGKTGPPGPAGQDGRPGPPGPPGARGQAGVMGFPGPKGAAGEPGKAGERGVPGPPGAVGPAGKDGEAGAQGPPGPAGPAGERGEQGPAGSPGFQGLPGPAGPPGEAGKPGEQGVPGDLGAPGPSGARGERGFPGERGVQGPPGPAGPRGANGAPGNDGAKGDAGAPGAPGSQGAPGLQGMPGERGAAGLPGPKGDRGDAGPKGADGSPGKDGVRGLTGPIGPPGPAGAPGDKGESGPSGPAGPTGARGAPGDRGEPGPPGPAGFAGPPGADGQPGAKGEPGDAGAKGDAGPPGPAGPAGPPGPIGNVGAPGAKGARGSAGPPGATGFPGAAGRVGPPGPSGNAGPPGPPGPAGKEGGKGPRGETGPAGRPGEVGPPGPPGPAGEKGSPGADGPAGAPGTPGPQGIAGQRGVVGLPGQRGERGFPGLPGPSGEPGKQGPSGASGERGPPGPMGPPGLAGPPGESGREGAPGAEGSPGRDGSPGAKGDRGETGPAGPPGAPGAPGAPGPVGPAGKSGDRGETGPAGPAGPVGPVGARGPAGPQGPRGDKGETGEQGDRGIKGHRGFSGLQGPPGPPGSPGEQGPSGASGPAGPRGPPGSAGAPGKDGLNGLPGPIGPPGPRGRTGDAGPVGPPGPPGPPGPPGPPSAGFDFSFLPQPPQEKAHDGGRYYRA
Chain of collagen I (P08123 80-1119 limits assumed): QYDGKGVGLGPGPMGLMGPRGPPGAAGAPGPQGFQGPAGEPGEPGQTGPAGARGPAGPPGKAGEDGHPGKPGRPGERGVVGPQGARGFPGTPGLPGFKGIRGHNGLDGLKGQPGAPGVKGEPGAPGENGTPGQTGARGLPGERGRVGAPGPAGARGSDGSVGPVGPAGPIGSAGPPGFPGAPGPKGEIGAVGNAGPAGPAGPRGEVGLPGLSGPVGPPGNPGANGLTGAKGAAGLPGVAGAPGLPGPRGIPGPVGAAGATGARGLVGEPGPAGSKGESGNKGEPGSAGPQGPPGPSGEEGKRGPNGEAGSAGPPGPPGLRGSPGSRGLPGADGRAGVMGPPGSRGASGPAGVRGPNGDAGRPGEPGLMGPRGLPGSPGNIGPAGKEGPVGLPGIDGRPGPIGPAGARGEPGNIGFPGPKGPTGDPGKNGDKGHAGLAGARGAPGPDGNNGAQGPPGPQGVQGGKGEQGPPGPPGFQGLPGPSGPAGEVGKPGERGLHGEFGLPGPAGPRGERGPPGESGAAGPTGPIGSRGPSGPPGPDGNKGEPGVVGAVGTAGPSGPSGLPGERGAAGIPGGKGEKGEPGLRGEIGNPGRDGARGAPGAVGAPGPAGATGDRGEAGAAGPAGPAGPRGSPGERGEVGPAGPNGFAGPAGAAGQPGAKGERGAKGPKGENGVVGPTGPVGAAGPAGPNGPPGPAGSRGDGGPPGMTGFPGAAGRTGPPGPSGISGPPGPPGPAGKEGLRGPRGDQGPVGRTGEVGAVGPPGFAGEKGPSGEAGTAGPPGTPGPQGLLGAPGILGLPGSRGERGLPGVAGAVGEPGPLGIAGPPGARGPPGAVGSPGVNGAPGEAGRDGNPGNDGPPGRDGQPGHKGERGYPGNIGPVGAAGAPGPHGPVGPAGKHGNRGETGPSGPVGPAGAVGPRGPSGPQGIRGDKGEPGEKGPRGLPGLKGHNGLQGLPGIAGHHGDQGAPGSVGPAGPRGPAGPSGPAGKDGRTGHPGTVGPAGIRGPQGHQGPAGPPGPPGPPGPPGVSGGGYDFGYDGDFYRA
Source text: as §1, §2

[1] = system: human OA cartilage (severely damaged, OA stage 3-4); assay: Lubrication testing (cartilage-on-cartilage friction), OA cartilage
Description: Cartilage sample preparation for lubrication testing. Cartilage samples were prepared for lubrication testing as a modification on previously published protocols (Arthritis and rheumatism 56, 882-891, (2007); Arthritis and rheumatism 50, 516-525, (2004)). Both normal and osteoarthritis tissue samples were ordered through (NDRI, Philadelphia, PA). Tissue samples were received within 24 hours post-mortem or surgery. Normal and diseased samples were received in a sterile container containing Dulbecco's Modified Eagle Medium (DMEM), and protease inhibitor cocktail. Biopsy punches were used to isolate cylindrical disks (radius=6 mm) and annuli (outer radius=4 mm, inner radius=1.5 mm) with small holes punctured through the cylinder walls to improve fluid depressurization. Due to the 24-hour time point in media washing for 24-hours to eliminate any lubricin, HA, and SAPLs; instead samples were washed for 4-6 hours in PBS on a shaker. […]
(§3) Lubrication testing. […] The samples were bathed in the test lubricant, measured with digital calipers, compressed to 82% of their original combined height, and preconditioned by rotating 2 revolutions in each direction at an effective sliding velocity of 3 mm/s, which is defined as the angular velocity times the effective radius of the annulus Reff=2/3[(Ro3−Ri3)/(Ro2−Ri2)]=2.94 mm. […]

[2] = system: normal human articular cartilage; assay: Lubrication testing (cartilage-on-cartilage friction), normal cartilage
Description: Cartilage sample preparation for lubrication testing. Cartilage samples were prepared for lubrication testing as a modification on previously published protocols (Arthritis and rheumatism 56, 882-891, (2007); Arthritis and rheumatism 50, 516-525, (2004)). Both normal and osteoarthritis tissue samples were ordered through (NDRI, Philadelphia, PA). Tissue samples were received within 24 hours post-mortem or surgery. Normal and diseased samples were received in a sterile container containing Dulbecco's Modified Eagle Medium (DMEM), and protease inhibitor cocktail. Biopsy punches were used to isolate cylindrical disks (radius=6 mm) and annuli (outer radius=4 mm, inner radius=1.5 mm) with small holes punctured through the cylinder walls to improve fluid depressurization. Due to the 24-hour time point in media washing for 24-hours to eliminate any lubricin, HA, and SAPLs; instead samples were washed for 4-6 hours in PBS on a shaker. HA sample groups were always incubated in HA solution (5 mg/mL) for 24-hours post-washing (FIGS. 4b,c). It should be noted that human cartilage was scarce especially in OA samples received.
In later experiments, covalent modification of cartilage surface by HABpep (FIG. 1) was performed on bovine articular cartilage samples. All non-covalent HABpep modification and in vitro lubrication studies were performed using human articular cartilage samples (FIG. 3). Normal human tissue was isolated from cadavers […]. Human OA cartilage samples were isolated from the patients with ages, 58 (F), 60 (F), 61 (M), 65 (M), 69 (M), 71 (F), who underwent total knee arthroplasty. Care was taken to avoid damaging the articular surface during dissection. Samples (outer diameter=8.0 mm, inner diameter=3.0 mm) were microtomed and evenly cut to obtain a flat surface. The superficial layer was maintained intact and only the deep layer of cartilage was cut to obtain a flat layer to glue to the metal counter-surface while friction measurements. Cartilage was used fresh without freezing or the addition of protease inhibitors so as not to change the surface lubrication properties. Samples were washed vigorously in PBS overnight to deplete the cartilage surface of any residual synovial fluid, after which they were functionalized with an HA-binding layer as needed and incubated at 4° C. for about 24 hours in the test lubricant. […]
as §3

[3] = normal cartilage without coating, tested in HA bath
[4] = normal cartilage, HA bath compared to PBS bath

Row | Substance | Normalized fluorescence intensity on collagen II coating (collagen II) | Fluorescence intensity, binding on collagen II coating (collagen II) | Normalized fluorescence intensity on collagen I coating (collagen I) | Fluorescence intensity, binding on collagen I coating (collagen I) | other results
1 | CRRDDGAHWQFNALTVR (SEQ ID NO: 2) (thiol; MAL-PEG-NHS conjugated to cartilage; listed as Homo sapiens) [HA-binding polymer coating] |  |  |  |  | Staining of bound biotinylated HA (streptavidin, horseradish peroxidase) (articular cartilage): stained darker; Staining of bound biotinylated HA (streptavidin, horseradish peroxidase) (articular cartilage; listed as C-HABPep): greater intensity of staining
2 | WYRGRL (SEQ ID NO: 4) (also: PEG-fluorescein conjugate; listed as Homo sapiens) [collagen II binding peptide, ECMBPep for collagen II; tested conjugated to PEG-fluorescein] | 1.65 times to that of scrambled peptide | significant binding | did not bind | no significant binding | 
3 | YSFYSDESLQ (SEQ ID NO: 3) (also: PEG-fluorescein conjugate; listed as Homo sapiens) [collagen I binding peptide, ECMBPep for collagen I; tested conjugated to PEG-fluorescein] | did not bind | no significant binding | 1.55 times to that of scrambled peptide | significant binding | 
4 | hyaluronic acid [HA] |  |  |  |  | static lubricity value (<μ> in PBS-<μ> in HA), most severely damaged OA samples vs normal cartilage ([1]; FIG. 4w): approximately 5 times; kinetic lubricity value (<μ> in PBS-<μ> in HA), most severely damaged OA samples vs normal cartilage ([1]; FIG. 4x): approximately 5 times; <μk> kinetic friction [2, 3]: 0.008; <μs> static friction [2, 3]: 0.018; decrease of kinetic total friction value [2, 4]: 72%; decrease of static total friction value [2, 4]: 35%
